Measurements published in PubChem BioAssay AID248 (DTP/NCI, 2004).
Inconclusive results and toxic doses are left out.

Test system: L1210 leukemia ip in BDF1 mice, survival T/C
Test: NCI In Vivo Anticancer Drug Screen. Data for tumor model L1210 Leukemia (intraperitoneal) in B6D2F1 (BDF1) mice
Settings: endpoint: mean survival time, higher = longer survival
How it was run: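 In this screen, tumor-bearing mice given compound are compared to those given vehicle, and their survival values are reported as a treated-to-control quotient.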

[1] = dose: 100.0 mg/kg/injection, schedule: Q04DX003 (ip), vehicle: Klucel (hydroxypropylcellulose) (HPC)
[2] = dose: 200.0 mg/kg/injection, schedule: Q04DX003 (ip), vehicle: Klucel (hydroxypropylcellulose) (HPC)
[3] = dose: 400.0 mg/kg/injection, schedule: Q04DX003 (ip), vehicle: Klucel (hydroxypropylcellulose) (HPC)
[4] = dose: 100.0 mg/kg/injection, schedule: Q04DX003 (ip), vehicle: saline with Tween-80
[5] = dose: 100.0 mg/kg/injection, schedule: Q04DX003 (ip), vehicle: saline
[6] = dose: 200.0 mg/kg/injection, schedule: Q04DX003 (ip), vehicle: saline with Tween-80
[7] = dose: 100.0 mg/kg/injection, schedule: Q01DX001 (ip), vehicle: saline
[8] = dose: 200.0 mg/kg/injection, schedule: Q01DX001 (ip), vehicle: saline
[9] = dose: 400.0 mg/kg/injection, schedule: Q01DX001 (ip), vehicle: saline
[10] = dose: 200.0 mg/kg/injection, schedule: Q04DX003 (ip), vehicle: saline
[11] = dose: 400.0 mg/kg/injection, schedule: Q04DX003 (ip), vehicle: saline

COc1c(/C=C/[N+](=O)[O-])ccc2c(C)c(C)oc12
T/C (dose: 25.0 mg/kg/injection, schedule: Q01DX009 (ip), vehicle: Klucel (hydroxypropylcellulose) (HPC)): 98 % of control | T/C (dose: 50.0 mg/kg/injection, schedule: Q01DX009 (ip), vehicle: Klucel (hydroxypropylcellulose) (HPC)): 95 % of control | T/C (dose: 100.0 mg/kg/injection, schedule: Q01DX009 (ip), vehicle: Klucel (hydroxypropylcellulose) (HPC)): 101 % of control | T/C [1]: 98 % of control | T/C [2]: 87 % of control | T/C [3]: 92 % of control

COc1cc([N+](=O)[O-])c2nc(Cl)ccc2c1
T/C (dose: 100.0 mg/kg/injection, schedule: Q01DX001 (ip), vehicle: carboxymethylcellulose (CMC)): 100 % of control | T/C (dose: 200.0 mg/kg/injection, schedule: Q01DX001 (ip), vehicle: carboxymethylcellulose (CMC)): 88 % of control | T/C (dose: 400.0 mg/kg/injection, schedule: Q01DX001 (ip), vehicle: carboxymethylcellulose (CMC)): 97 % of control

CCCCC(=O)N(c1ccc(Nc2c3ccccc3nc3cc([N+](=O)[O-])ccc23)cc1)S(C)(=O)=O
T/C (dose: 3.18 mg/kg/injection, schedule: Q01DX009 (sc), vehicle: saline): 119 % of control | T/C (dose: 6.25 mg/kg/injection, schedule: Q01DX009 (ip), vehicle: saline with Tween-80): 160 % of control | T/C (dose: 16.5 mg/kg/injection, schedule: Q04DX003 (ip), vehicle: saline with Tween-80): 150 % of control | T/C (dose: 25.0 mg/kg/injection, schedule: Q01DX009 (ip), vehicle: saline with Tween-80): 95 % of control | T/C (dose: 25.0 mg/kg/injection, schedule: Q01DX009 (sc), vehicle: saline): 179 % of control | T/C (dose: 25.0 mg/kg/injection, schedule: Q04DX003 (ip), vehicle: saline with Tween-80): 153 % of control | T/C (dose: 44.0 mg/kg/injection, schedule: Q04DX003 (ip), vehicle: saline): 168 % of control | T/C (dose: 50.0 mg/kg/injection, schedule: Q04DX003 (ip), vehicle: saline with Tween-80): 242 % of control | T/C (dose: 67.0 mg/kg/injection, schedule: Q04DX003 (ip), vehicle: saline): 92 % of control | T/C [4]: 188 % of control | T/C [5]: 103 % of control | T/C [6]: 100 % of control

CC(C)(C)C(=O)OCn1cnc(C#N)c1[N+](=O)[O-]
T/C (dose: 100.0 mg/kg/injection, schedule: Q01DX001 (ip), vehicle: acetone): 92 % of control | T/C (dose: 200.0 mg/kg/injection, schedule: Q01DX001 (ip), vehicle: acetone): 101 % of control | T/C (dose: 400.0 mg/kg/injection, schedule: Q01DX001 (ip), vehicle: acetone): 92 % of control

CCCCCC(=O)/C=C/CC(CCCCCCC#N)C(CC(OC)OC)[N+](=O)[O-] (stereo not drawn)
T/C [1]: 100 % of control | T/C [2]: 96 % of control | T/C [3]: 96 % of control

Cc1ccc(S(=O)(=O)NNC(=O)c2ccccc2NCCO)cc1
T/C [7]: 101 % of control | T/C [8]: 101 % of control | T/C [9]: 103 % of control

COc1c(NS(=O)(=O)c2ccccc2)cc2c3c(cccc13)CC2
T/C [4]: 97 % of control | T/C [6]: 93 % of control | T/C (dose: 400.0 mg/kg/injection, schedule: Q04DX003 (ip), vehicle: saline with Tween-80): 101 % of control

CC1CC(C(C)CC(=O)O)C(=O)O1 (stereo not drawn)
T/C [7]: 102 % of control | T/C [5]: 111 % of control | T/C [8]: 95 % of control | T/C [10]: 108 % of control | T/C [9]: 97 % of control | T/C [11]: 101 % of control

CN(C)Cc1cc(Cl)cc(Cc2cc(Cl)cc(CN(C)C)c2O)c1O
T/C [7]: 100 % of control | T/C [5]: 93 % of control | T/C [8]: 94 % of control | T/C [10]: 88 % of control | T/C [9]: 96 % of control | T/C [11]: 95 % of control

C[C@]12CCC(=O)C=C1CC[C@@H]1[C@@H]2CC[C@@]2(C)[C@H]1CC[C@]2(C)O
T/C (dose: 100.0 mg/kg/injection, schedule: Q04DX003 (sc), vehicle: steriod suspending solution): 95 % of control | T/C (dose: 200.0 mg/kg/injection, schedule: Q04DX003 (sc), vehicle: steriod suspending solution): 102 % of control | T/C (dose: 400.0 mg/kg/injection, schedule: Q04DX003 (sc), vehicle: steriod suspending solution): 97 % of control
